The assay deals with DCN1 (DCUND1) protein PONY domain (Homo sapiens (Human), UniProt Q96GG9). Description: TR-FRET assay, DCN1 binding with FAM-labeled probe. The method, then:
A TR-FRET assay was performed to evaluate the ability of the compounds to bind the DCN-1 protein.
The TR-FRET assay was designed following the Scott et al. protocol (Scott et al., Nat Chem Biol. 2017 August; 13(8): 850-857. Doi:10.1038/nchembio.2386). The recombinant form of the DCN1 (DCUND1) protein PONY domain was produced using an E. coli expression system at Viva Biotech (China). The DCN1 protein was biotinylated (EZ sulfo-NHS-LC-biotin; Thermofisher) for labeling with streptavidin terbium (Tb) cryptate in the reaction. The probe was changed to a non-covalent DCN1 inhibitor labeled with carboxyfluorescein (FAM; Zhou et al., Nat Commun. 2017; 8: 1150. Doi: 10.1038/s41467-017-01243-7). Buffer conditions were modified to enhance protein stability by exchanging Tween20 for TritonX and increasing NaCl to 200 mM. The compounds were screened against 5 nM DCN1 and 20 nM FAM-probe or 0.31 nM DCN1 and 900 nM total probe (100 nM FAM-labeled plus 800 nM unlabeled). The TR-FRET ratio between Tb-DCN1 and the FAM-labeled probe was measured in a 384-well opti-plate (Perkin Elmer) using a plate reader (BMG) at 1, 5, and 24 hrs after treatment with compound (final DMSO concentration of 0.1%).
A general note: In TR-FRET formats the signal depends on donor and acceptor labels being close together.

The mark [1] stands for this setting: 24 hr after treatment with compound, read-out: TR FRET IC50 24 hr.
Where [2] appears, read: TR FRET IC50 1 hr (nM), 1 hr after treatment with compound.
The mark [3] stands for this setting: read-out: TR FRET IC50 1 hr, 1 hr after treatment with compound.

Structures are written as SMILES. Where two headings read alike, the source gives them in different places. Some results are limits rather than exact numbers.

Results on 23 molecules are retold here after patent publication US20250163057A1, “DCN-1 MODULATING COMPOUNDS AND METHODS OF USE THEREOF” (Cellarity, Inc., priority 2023, published 2025).

Sequence of DCN1 (DCUND1) protein PONY domain (Q96GG9 60-248): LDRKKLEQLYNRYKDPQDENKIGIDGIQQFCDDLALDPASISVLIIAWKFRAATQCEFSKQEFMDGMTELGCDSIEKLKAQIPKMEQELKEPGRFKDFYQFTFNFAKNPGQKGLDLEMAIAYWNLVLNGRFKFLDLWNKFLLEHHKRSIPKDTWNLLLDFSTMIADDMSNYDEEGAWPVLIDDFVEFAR

Regarding `C=C(COC)C(=O)NCc1nn(-c2ccccc2)c2c1[C@@H](c1ccc(F)cc1)[C@H](NC(=O)c1cccc(C(F)(F)F)c1)C(=O)N2CC` [Compound I-109], the IC50 is, setting by setting: under setting [1], 200 to 1000 nM; under setting [2], 200 to 1000 nM.

Turning to `CCN1C(=O)[C@@H](NC(=O)c2cccc(C(F)(F)F)c2)[C@@H](c2ccc(F)cc2)c2c(CNC(=O)[C@H](C)C#N)nn(-c3ccccc3)c21` (relative stereo) [Compound I-85, N-((4RS,5RS)-3-(((S*)-2-cyanopropanamido)methyl)-7-ethyl-4-(4-fluorophenyl)-6-oxo-1-phenyl-4,5,6,7-tetrahydro-1H-pyrazolo[3,4-b]pyridin-5-yl)-3-(trifluoromethyl)benzamide], the IC50 is 1000 to 3000 nM under setting [1] and 1000 to 3000 nM under setting [2].

Take `CCN1C(=O)[C@@H](NC(=O)c2cccc(C(F)(F)F)c2)[C@@H](c2ccc(F)cc2)c2c(CNC(=O)[C@@H](C)C#N)nn(-c3ccccc3)c21` (relative stereo) [Compound I-158, N-((4RS,5RS)-3-(((R*)-2-cyanopropanamido)methyl)-7-ethyl-4-(4-fluorophenyl)-6-oxo-1-phenyl-4,5,6,7-tetrahydro-1H-pyrazolo[3,4-b]pyridin-5-yl)-3-(trifluoromethyl)benzamide]: the IC50 reads like this: under setting [1], 200 to 1000 nM; under setting [2], 200 to 1000 nM.

For `CCN1C(=O)[C@@H](NC(=O)C(C)c2cccc(F)c2)[C@@H](C2CC2)c2c(C(=O)N3[C@H](C#N)C[C@H]4C[C@H]43)nn(C3CCOCC3)c21` (stereo partly shown) [Compound I-440], the IC50 was 1000 to 3000 nM under setting [1] and 1000 to 3000 nM under setting [2].

`CCN1C(=O)[C@@H](NC(=O)c2cccc(C(F)(F)F)c2)[C@@H](c2ccc(F)cc2)c2c(C(=O)NC(C)(C)C#N)nn(-c3ccccc3)c21` (racemic) [Compound I-31, rac-(4R,5R)—N-(2-cyanopropan-2-yl)-7-ethyl-4-(4-fluorophenyl)-6-oxo-1-phenyl-5-(3-(trifluoromethyl)benzamido)-4,5,6,7-tetrahydro-1H-pyrazolo[3,4-b]pyridine-3-carboxamide]: the IC50 runs as follows: under setting [1], 1000 to 3000 nM; under setting [2], 1000 to 3000 nM.

Take `C/C=C/S(=O)(=O)NCc1nn(-c2ccccc2)c2c1[C@H](c1ccc(F)cc1)[C@H](NC(=O)c1cccc(C(F)(F)F)c1)C(=O)N2CC` (racemic) [Compound I-6]: the IC50 is, setting by setting: under setting [1], at most 200 nM; under setting [2], 200 to 1000 nM.

For the molecule `CCN1C(=O)[C@@H](NC(=O)c2cccc(C(F)(F)F)c2)[C@@H](c2ccc(F)cc2)c2c(CNCC#N)nn(-c3ccccc3)c21` (racemic) [Compound I-96, rac-N-((4R,5R)-3-(((cyanomethyl)amino)methyl)-7-ethyl-4-(4-fluorophenyl)-6-oxo-1-phenyl-4,5,6,7-tetrahydro-1H-pyrazolo[3,4-b]pyridine-5-yl)-3-(trifluoromethyl)benzamide], the IC50 runs as follows: under setting [1], 200 to 1000 nM; under setting [2], 200 to 1000 nM.

Take `CCN1C(=O)[C@@H](NC(=O)c2ccc(F)c(F)c2OC)[C@@H](C2CC2)c2c(C(=O)N3[C@H](C#N)C[C@H]4C[C@H]43)nn(C3CCOCC3)c21` [Compound I-502]: the IC50 by setting is: under setting [1], 200 to 1000 nM; under setting [2], 1000 to 3000 nM.

In the case of `CCN1C(=O)[C@@H](NC(=O)c2cnc(C(F)(F)F)s2)[C@@H](C2CC2)c2c(C(=O)N3[C@H](C#N)C[C@H]4C[C@H]43)nn(C3CCOCC3)c21` [Compound I-513], the IC50 was in the range of 1000 to 3000 nM under setting [1] and 1000 to 3000 nM under setting [2].

For the molecule `CCN1C(=O)[C@@H](NC(=O)c2cccc(C(F)(F)F)c2)[C@@H](c2ccc(F)cc2)c2c(CC/C=C/C(=O)NC)nn(-c3ccccc3)c21` (racemic) [Compound I-91], the IC50 under setting [1] is 200 to 1000 nM and the IC50 under setting [2] was in the range of 200 to 1000 nM.

As for `CCN1C(=O)[C@@H](NC(=O)c2ccc(N3CCN(C)CC3)cn2)[C@@H](C2CC2)c2c(C(=O)N3[C@H](C#N)C[C@H]4C[C@H]43)nn(C3CCOCC3)c21` [Compound I-588], the IC50 is, setting by setting: under setting [1], 1000 to 3000 nM; under setting [2], 1000 to 3000 nM.

Take `CCN1C(=O)[C@@H](NC(=O)c2cccc(C(F)(F)F)c2)[C@@H](c2ccc(F)cc2)c2c(CNC(=O)/C=C/C(=O)OC(C)(C)C)nn(-c3ccccc3)c21` (racemic) [Compound I-45, tert-butyl I-4-((((4S,5S)-7-ethyl-4-(4-fluorophenyl)-6-oxo-1-phenyl-5-(3-(trifluoromethyl)benzamido)-4,5,6,7-tetrahydro-1H-pyrazolo[3,4-b]pyridine-3-yl)methyl)amino)-4-oxobut-2-enoate]: the IC50 under setting [1] was at most 200 nM and the IC50 under setting [2] fell in the range of 1000 to 3000 nM.

For the molecule `CCN1C(=O)[C@@H](NC(=O)c2cccc(C(F)(F)F)c2)[C@@H](c2ccc(F)cc2)c2c(CC/C=C/C(=O)N(C)C)nn(-c3ccccc3)c21` (racemic) [Compound I-48], the IC50 under setting [1] is at most 200 nM and the IC50 under setting [3] is at most 200 nM.

As to `C=C(C(=O)OC(C)(C)C)[C@@H](O)c1nn(-c2ccccc2)c2c1[C@H](c1ccc(F)cc1)[C@H](NC(=O)c1cccc(C(F)(F)F)c1)C(=O)N2CC` (racemic) [Compound I-146, rac-tert-butyl 2-(((4R,5R)-7-ethyl-4-(4-fluorophenyl)-6-oxo-1-phenyl-5-(3-(trifluoromethyl)benzamido)-4,5,6,7-tetrahydro-1H-pyrazolo[3,4-b]pyridin-3-yl)(hydroxy)methyl)acrylate], the 50% inhibitory concentration (IC50) under setting [1] fell in the range of 200 to 1000 nM and the IC50 under setting [2] was in the range of 1000 to 3000 nM.

As to `CCN1C(=O)[C@@H](NC(=O)c2cc(C)n(C(C)(C)C)n2)[C@@H](C2CC2)c2c(C(=O)N3[C@H](C#N)C[C@H]4C[C@H]43)nn(C3CCOCC3)c21` [Compound I-691], the half-maximal inhibitory concentration (IC50) is at most 200 nM under setting [1] and 1000 to 3000 nM under setting [2].

With `CCC(=O)N[C@@H]1C(=O)N(CC)c2c(c(C(=O)N3[C@H](C#N)C[C@H]4C[C@H]43)nn2C2CCOCC2)[C@@H]1C1CC1` [Compound I-696], the IC50 is, setting by setting: under setting [1], 1000 to 3000 nM; under setting [2], 1000 to 3000 nM.

With `CCN1C(=O)[C@@H](NC(=O)c2cccc(N3CCCC3=O)c2)[C@@H](C2CC2)c2c(C(=O)N3[C@H](C#N)C[C@H]4C[C@H]43)nn(C3CCOCC3)c21` [Compound I-505], the 50% inhibitory concentration (IC50) under setting [1] fell in the range of 1000 to 3000 nM and the IC50 under setting [2] is 1000 to 3000 nM.

As to `CCN1C(=O)[C@@H](NC(=O)c2cccc(C(F)(F)F)c2)[C@@H](c2ccc(F)cc2)c2c(CNC(=O)C3(C#N)CCOCC3)nn(-c3ccccc3)c21` (racemic) [Compound I-22, rac-4-cyano-N-(((4R,5R)-7-ethyl-4-(4-fluorophenyl)-6-oxo-1-phenyl-5-(3-(trifluoromethyl)benzamido)-4,5,6,7-tetrahydro-1H-pyrazolo[3,4-b]pyridine-3-yl)methyl)tetrahydro-2H-pyran-4-carboxamide], the IC50 was in the range of 1000 to 3000 nM under setting [1] and 1000 to 3000 nM under setting [2].

As to `CCN1C(=O)[C@@H](NC(=O)c2ccn(C(C)C)n2)[C@@H](C2CC2)c2c(C(=O)N3[C@H](C#N)C[C@H]4C[C@H]43)nn(C3CCOCC3)c21` [Compound I-472], the IC50 reads like this: under setting [1], at most 200 nM; under setting [2], 200 to 1000 nM.

In the case of `C=C(Cc1nn(-c2ccccc2)c2c1[C@H](c1ccc(F)cc1)[C@H](NC(=O)c1cccc(C(F)(F)F)c1)C(=O)N2CC)C(=O)O` (racemic) [Compound I-21, rac-2-(((4R,5R)-7-ethyl-4-(4-fluorophenyl)-6-oxo-1-phenyl-5-(3-(trifluoromethyl)benzamido)-4,5,6,7-tetrahydro-1H-pyrazolo[3,4-b]pyridin-3-yl)methyl)acrylic acid], the IC50 runs as follows: under setting [1], 1000 to 3000 nM; under setting [2], 1000 to 3000 nM.

Regarding `C/C=C(\CN1CCOCC1)C(=O)NCc1nn(-c2ccccc2)c2c1[C@H](c1ccc(F)cc1)[C@H](NC(=O)c1cccc(C(F)(F)F)c1)C(=O)N2CC` (racemic) [Compound I-14], the IC50 is at most 200 nM under setting [1] and at most 200 nM under setting [3].

On to `CCN1C(=O)[C@@H](NC(=O)c2cccc(C(F)(F)F)c2)[C@@H](c2ccc(F)cc2)c2c([C@H](O)CNC#N)nn(-c3ccccc3)c21` (racemic) [Compound I-9, rac-N-((4R,5R)-3-(2-cyanamido-1-hydroxyethyl)-7-ethyl-4-(4-fluorophenyl)-6-oxo-1-phenyl-4,5,6,7-tetrahydro-1H-pyrazolo[3,4-b]pyridin-5-yl)-3-(trifluoromethyl)benzamide], for which the IC50 is, setting by setting: under setting [1], 1000 to 3000 nM; under setting [2], 200 to 1000 nM.

Turning to `CCN1C(=O)[C@@H](NC(=O)c2cccc(C(F)(F)F)c2)[C@@H](c2ccc(F)cc2)c2c(CNC(=O)/C=C/C(=O)NCCN(C)C)nn(-c3ccccc3)c21` (racemic) [Compound I-154, rac-N1-(2-(dimethylamino)ethyl)-N4-(((4R,5R)-7-ethyl-4-(4-fluorophenyl)-6-oxo-1-phenyl-5-(3-(trifluoromethyl)benzamido)-4,5,6,7-tetrahydro-1H-pyrazolo[3,4-b]pyridine-3-yl)methyl)fumaramide], the IC50 is, setting by setting: under setting [1], at most 200 nM; under setting [2], 200 to 1000 nM.

A word on the IC50: it is the point on the concentration scale where inhibition reaches its midpoint.
